Experimental data published in ChEMBL document CHEMBL3992552, “Mechanisms of action and structure-activity relationships of cytotoxic flavokawain derivatives” (Bioorg Med Chem, 2017).
Calls of active or inactive are those of the source. The calls are words filed in the database; no cut-off is given here.

Tests used:
[1] = system: HCT-116; test: Cell cycle arrest in human HCT116 cells harboring wild-type p53 assessed as accumulation at S phase at 25 uM measured after 48 hrs by Hoechst/BrdU staining based fluorescence assay (reference value: 68.4%); format: functional
[2] = system: PC-3; test: Induction of apoptosis in human PC3 cells harboring p53 mutant assessed as increase in early apoptosis at 2 times IC50 after 48 hrs by YoPro/propidium iodide/Hoechst staining based assay; format: functional, cell-based
[3] = system: Fibroblast; test: Cytotoxicity against human fibroblasts assessed as cell viability after 48 hrs by Hoechst 33342 staining based assay
[4] = system: MDA-MB-231; test: Cytotoxicity against human MDA-MB-231 cells assessed as cell survival at 50 uM after 48 hrs by Hoechst 33342 staining based assay relative to control; format: functional; conditions: MDA-MB-231, 48 h, read-out: Survival
[5] = system: MDA-MB-231; test: Cell cycle arrest in human MDA-MB-231 cells harboring p53 mutant assessed as mitotic index at 25 uM measured after 48 hrs by Hoechst staining based fluorescence assay (reference value: 2.1); format: functional
[6] = system: PC-3; test: Induction of apoptosis in human PC3 cells harboring p53 mutant assessed as increase in late apoptosis at 2 times IC50 after 48 hrs by YoPro/propidium iodide/Hoechst staining based assay; format: functional, cell-based
[7] = Selectivity index, ratio of IC50 for human fibroblasts to IC50 for human RL cells
[8] = system: HaCaT; test: Cell cycle arrest in human HaCaT cells assessed as accumulation at M phase by Hoechst staining based fluorescence assay; format: functional
[9] = system: HaCaT; test: Cell cycle arrest in human HaCaT cells harboring […] p53 assessed as accumulation at S phase at 10 uM measured after 48 hrs by Hoechst/BrdU staining based fluorescence assay (reference value: 52.3%); format: functional
[10] = system: HCT-116; test: Cell cycle arrest in human HCT116 cells harboring wild-type p53 assessed as mitotic index at 10 uM measured after 48 hrs by Hoechst staining based fluorescence assay (reference value: 2.3); format: functional
[11] = system: Caco-2; test: Cell cycle arrest in human Caco2 cells assessed as mitotic index at 10 uM measured after 48 hrs by Hoechst staining based fluorescence assay (reference value: 3.6); format: functional
[12] = system: PC-3; test: Cell cycle arrest in human PC3 cells harboring p53 mutant assessed as mitotic index at 10 uM measured after 48 hrs by Hoechst staining based fluorescence assay (reference value: 2.5); format: functional
[13] = system: PC-3; test: Cell cycle arrest in human PC3 cells harboring p53 mutant assessed as accumulation at S phase at 10 uM measured after 48 hrs by Hoechst/BrdU staining based fluorescence assay (reference value: 40.8%); format: functional
[14] = system: NCI-H727; test: Cell cycle arrest in human NCI-H727 cells harboring p53 mutant assessed as accumulation at S phase at 25 uM measured after 48 hrs by Hoechst/BrdU staining based fluorescence assay (reference value: 40.3%); format: functional
[15] = system: MDA-MB-231; test: Cytotoxicity against human MDA-MB-231 cells assessed as cell viability after 48 hrs by Hoechst 33342 staining based assay; format: functional; conditions: MDA-MB-231, 48 h
[16] = system: HCT-116; test: Cell cycle arrest in human HCT116 cells harboring wild-type p53 assessed as mitotic index at 25 uM measured after 48 hrs by Hoechst staining based fluorescence assay (reference value: 2.3); format: functional
[17] = system: Caco-2; test: Cytotoxicity against human Caco2 cells assessed as cell viability after 48 hrs by Hoechst 33342 staining based assay; format: functional; conditions: Caco-2, 48 h
[18] = Selectivity index, ratio of IC50 for human fibroblasts to IC50 for human NCI-H727 cells
[19] = system: Caco-2; test: Cell cycle arrest in human Caco2 cells assessed as mitotic index at 25 uM measured after 48 hrs by Hoechst staining based fluorescence assay (reference value: 3.6); format: functional
[20] = system: PC-3; test: Induction of apoptosis in human PC3 cells harboring p53 mutant assessed as upregulation of cyclinB1 after 48 hrs by Hoechst staining based assay; format: functional, cell-based
[21] = system: HCT-116; test: Induction of apoptosis in human HCT116 cells harboring wild-type p53 assessed as upregulation of p21 measured after 48 hrs by Hoechst staining based fluorescence assay; format: functional, cell-based
[22] = system: Huh-7; test: Cytotoxicity against human HuH7 cells assessed as cell viability after 48 hrs by Hoechst 33342 staining based assay; format: functional; conditions: Huh-7, 48 h
[23] = system: PC-3; test: Cell cycle arrest in human PC3 cells harboring p53 mutant assessed as mitotic index at 25 uM measured after 48 hrs by Hoechst staining based fluorescence assay (reference value: 2.5); format: functional
[24] = system: PC-3; test: Cell cycle arrest in human PC3 cells harboring p53 mutant assessed as accumulation at S phase at 25 uM measured after 48 hrs by Hoechst/BrdU staining based fluorescence assay (reference value: 40.8%); format: functional
[25] = system: Huh-7; test: Cell cycle arrest in human HuH7 cells assessed as accumulation at S phase at 25 uM measured after 48 hrs by Hoechst/BrdU staining based fluorescence assay (reference value: 44%); format: functional
[26] = system: MDA-MB-231; test: Cell cycle arrest in human MDA-MB-231 cells harboring p53 mutant assessed as accumulation at S phase at 25 uM measured after 48 hrs by Hoechst/BrdU staining based fluorescence assay (reference value: 42.2%); format: functional
[27] = system: MCF7; test: Induction of apoptosis in human MCF7 cells harboring wild-type p53 assessed as upregulation of cyclinB1 measured after 18 hrs by Hoechst staining based assay; format: functional, cell-based
[28] = system: HCT-116; test: Induction of apoptosis in human HCT116 cells harboring wild-type p53 assessed as increase in late apoptosis at 2 times IC50 after 48 hrs by YoPro/propidium iodide/Hoechst staining based assay; format: functional, cell-based
[29] = system: MDA-MB-231; test: Induction of apoptosis in human MDA-MB-231 cells harboring p53 mutant assessed as increase in early apoptosis at 2 times IC50 after 24 hrs by YoPro/propidium iodide/Hoechst staining based assay; format: functional, cell-based
[30] = Selectivity index, ratio of IC50 for human fibroblasts to IC50 for human PC3 cells
[31] = Selectivity index, ratio of IC50 for human fibroblasts to IC50 for human HuH7 cells
[32] = system: HaCaT; test: Cell cycle arrest in human HaCaT cells harboring […] p53 assessed as mitotic index at 10 uM measured after 48 hrs by Hoechst staining based fluorescence assay (reference value: 2.6); format: functional
[33] = system: MDA-MB-231; test: Cell cycle arrest in human MDA-MB-231 cells harboring p53 mutant assessed as mitotic index at 10 uM measured after 48 hrs by Hoechst staining based fluorescence assay (reference value: 2.1); format: functional
[34] = system: HCT-116; test: Cell cycle arrest in human HCT116 cells harboring wild-type p53 assessed as accumulation at S phase at 10 uM measured after 48 hrs by Hoechst/BrdU staining based fluorescence assay (reference value: 68.4%); format: functional
[35] = system: Huh-7; test: Cell cycle arrest in human HuH7 cells assessed as mitotic index at 10 uM measured after 48 hrs by Hoechst staining based fluorescence assay (reference value: 2.2); format: functional
[36] = system: Huh-7; test: Cell cycle arrest in human HuH7 cells assessed as mitotic index at 25 uM measured after 48 hrs by Hoechst staining based fluorescence assay (reference value: 2.2); format: functional
[37] = Selectivity index, ratio of IC50 for human fibroblasts to IC50 for human MCF7 cells
[38] = system: NCI-H727; test: Cell cycle arrest in human NCI-H727 cells harboring p53 mutant assessed as accumulation at S phase at 10 uM measured after 48 hrs by Hoechst/BrdU staining based fluorescence assay (reference value: 40.3%); format: functional

SMILES | Activity [1] | Activity [2] | IC50 [3] | viability at 50 µM [4] | Activity_index [5] | Activity [6] | Ratio IC50 [7] | Activity [8] | Activity [9] | Activity_index [10] | Activity_index [11] | Activity_index [12] | Activity [13] | Activity [14] | IC50 [15] | Activity_index [16] | IC50 [17] | Ratio IC50 [18] | Activity_index [19] | Activity [20] | other results
COc1cc(OC)c(C(=O)/C=C/c2ccc(F)cc2)c(OC)c1 | 0.7% | Active | > 20 µM | 12% | 4.8 | Active | >7.8 | Active | 20% | 1.3 | 32 | 14.6 | 27% | 4.5% | 10.7 µM | 0.4 | 5.5 µM | >9.1 | 4.2 | Active | Activity [21]: Active; IC50 [22]: 14.6 µM; Activity_index [23]: 0.4; Activity [24]: 0.4%; Activity [25]: 1.1%; Activity [26]: 10%; Activity [27]: Active; Activity [28]: Active; Activity [29]: Active; Ratio IC50 [30]: >9.1; Ratio IC50 [31]: >3.4; Activity_index [32]: 10.7; Activity_index [33]: 22; Activity [34]: 23%; Activity_index [35]: 4.7; Activity_index [36]: 1.3; Ratio IC50 [37]: >6.5; Activity [38]: 31%
COc1cc(OC)c(C(=O)/C=C/c2ccc(Br)cc2)c(OC)c1 | 68% | Active | > 20 µM | 6% | 3.4 | Active | >6 | Active | 24% | 2.8 | 30.7 | 2.5 | 35% | 6% | 11.1 µM | 0.6 | 6.8 µM | >4.4 | 1.4 | Active | Activity [21]: Active; IC50 [22]: 13.9 µM; Activity_index [23]: 0; Activity [24]: 0.4%; Activity [25]: 0.2%; Activity [26]: 44%; Activity [27]: Active; Activity [28]: Active; Activity [29]: Active; Ratio IC50 [30]: >7; Ratio IC50 [31]: >3.6; Activity_index [32]: 19; Activity_index [33]: 15; Activity [34]: 68%; Activity_index [35]: 10.4; Activity_index [36]: 0.1; Ratio IC50 [37]: >5.3; Activity [38]: 39%
